We go through one compound from patent publication US7687465B2, “Therapeutic cancer vaccine” (Kraeftens Bekaempelse, priority 2003, dated 2010).

The test concerns the target T1, HLA-A2 (Homo sapiens, UniProt P04439, D140Y/D185E/D98H/E176V/E277Q/G131W/G231S/I119V/I121R/I166T/I218V/L300P/L318F/N151K/N90K/P208A/P217A/Q86G/Q94H/R138H/R169H/T345S).
T1 construct: stabilization of the class 1 molecule after loading of peptide to the peptide transporter deficient cell line T2; endogenous in cells; host or cells: T2 (TAP-deficient human cell line), metabolically labelled with [35S]-methionine and lysed
The test is described as follows: Assembly assay for peptide binding to class I MHC molecules. Particulars: concentration of the peptide required for half maximal binding to HLA-A2; read-out: C50. On the procedure:
Assembly assays for binding of the synthetic peptides to class I MHC molecules metabolically labeled with [^35S]-methionine can be carried out as described below. It will be appreciated by the person skilled in the art that the protocol may be adopted for any peptide and any class I MHC molecule.
Briefly, TAP deficient cells were metabolically labeled with [^35S]-methionine (Amersham, Freiburg, Germany). The cells were lyzed in 0.5 ml lysis buffer (150 mM NaCl, 50 mM TrisHCl, 0.5% NP-40 (Fluka, Buchs, Switzerland), 5 mM EDTA, pH 7.5) with 0.5% Mega-9 (Sigma, St. Louis, USA) in the presence of protease inhibitors (2 mM PMSF, 5 mM iodoacetamide, 2 μg/ml pepstatin, 2 μg/ml leupeptin) with or without synthetic peptide (for a list of positive control peptides, see Table 2).
After 20 min of incubation, the cell nuclei were removed by centrifugation (5 min, 10,000 g) and 50 μl (10% v/v) freshly washed Staphylococcus aureus organisms (Pansorbin, Calbiochem, Nottingham, UK). The next day Pansorbin was removed by centrifugation (12 min, 16,000 g) and the appropriate monoclonal antibody was added at a final concentration of 10 μg/ml, incubated for 90 min, followed by addition of protein A-Sepharose (75 μl, 10% v/v) and incubation for 1 h. The beads were washed 4 times and stored at −20° C. until analysis by electrophoresis.
In the case of an assembly assay with the HLA class I-specific conformation-dependent monoclonal antibody W6/32, samples were eluted in reducing buffer (9.5 M urea, 2% NP-40, 5% 2-mercaptoethanol, 2% Ampholines, pH range 3.5-9.5 (Pharmacia Biotech, Uppsala, Sweden)) and focused for 16 h at 880 V on 5.5% polyacrylamide isoelectric focusing (IEF) gels^20,39.
Samples from assembly assays with allele-specific antibodies were eluted by boiling (5 min) in SDS reducing buffer (50 mM TrisHCl pH 6.8, 2% SDS, 5% 2-mercaptoethanol, 10% glycerol, 2.5% bromophenol blue) and electrophorezed on 12% SDS-PAGE gels (1 h at 200 V). All gels were fixed in 10% acetic acid with 5% methanol and dried onto 3 MM paper (Whatman, Maidstone, UK). MHC heavy chain bands were quantified using the Imagequant Phosphorimager program (Molecular Dynamics, Sunnyvale, Calif., USA). The intensity of the band is directly related to the amount of peptide-bound class I MHC complex recovered during the assay. C50 value (μM) as the concentration of the peptide required for half maximal binding to MHC may thus be determined. The binding affinities of the analysed peptides are determined according to their efficiency of stabilising the HLA class I molecules. The binding affinity is represented as the peptide concentration required to reach half-maximal stabilistation of appropriate HLA-molecule.
Assembly assays for binding of the synthetic peptides to class I MHC molecules metabolically labeled with [^35S]-methionine were carried out as described^15,16. The assembly assay is based on stabilization of the class 1 molecule after loading of peptide to the peptide transporter deficient cell line T2. Subsequently correctly folded stable MHC heavy chains are immunoprecipitated using conformation-dependent antibodies. After IEF electrophoresis, gels were exposed to phosphorImager screens, and peptide binding was quantitated using the Imagequant PhosphorImager program (Molecular Dynamics, Sunnyvale, Calif.).

`CC(C)C[C@H](NC(=O)[C@@H](N)CCCNC(=N)N)C(=O)N[C@@H](CCC(N)=O)C(=O)N[C@@H](CCC(=O)O)C(=O)N[C@@H](CCC(=O)O)C(=O)N[C@@H](CCCNC(=N)N)C(=O)N[C@H](C(=O)N[C@@H](CS)C(=O)N[C@@H](CCCCN)C(=O)N[C@H](C(=O)O)C(C)C)[C@@H](C)O` [ML-IAP245]: the EC50 came to 1000 nM.
